Legend:
[1] = target: T1, BRD4-2 (Homo sapiens, UniProt O60885); test: Bromodomain and Extraterminal Domain (BET) binding assay (Alpha, Reaction Biology Corp.), BRD4-2; conditions: protein 130 nM, ligand histone H4 peptide (1-21) K5/8/12/16Ac-biotin 70 nM
T1 construct: purchased Reaction Biology Corp
Method: (§1) The bromodomain binding assays are performed by Reaction Biology Corp., Malvern, Pa., USA (www.reactionbiology.com). The BET binding assays are conducted in 384 well microplates in assay buffer (50 mM HEPES-HCl, pH 7.5, 100 mM NaCl, 1 mg/ml BSA, 0.05% CHAPS, and 0.5% DMSO) with compounds added as DMSO stocks at a single concentration or with 10-point dose response titrations. BET protein or assay buffer are delivered to the appropriate wells of the microplate. Test compound is then delivered by acoustic technology via a Labcyte Echo550 liquid handler. The microplate is centrifuged for 5 min and pre-incubated for 30 min at RT with gentle shaking. The ligand (histone H4 peptide (1-21) K5/8/12/16Ac-biotin) is delivered and the microplate is again centrifuged for 5 min and allowed to incubate for 30 min at RT with gentle shaking. Donor beads are then added in the absence of light and the microplate is centrifuged and gently shaken. After 5 min, acceptor beads are added in the absence of light and the microplate is centrifuged and gently shaken in the dark for 60 min. The microplate is read using a Perkin Elmer EnSpire Alpha plate reader (λ Ex/λ Em=680/520-620 nm). Percent inhibition is calculated relative to positive and negative controls on a per plate basis. For titration experiments, IC50 values are determined by fitting the percent inhibition versus compound concentration. […]

[2] = target: T2, BRD4-1 (Homo sapiens, UniProt O60885); test: Bromodomain and Extraterminal Domain (BET) binding assay (Alpha, Reaction Biology Corp.), BRD4-1; conditions: protein 20 nM, ligand histone H4 peptide (1-21) K5/8/12/16Ac-biotin 20 nM
T2 construct: purchased Reaction Biology Corp
Method: as §1

Structure (SMILES) | IC50 [1] | IC50 [2]
CCNC(=O)c1cc2c(=O)n(C)cc(-c3cc(C(C)(C)O)ccc3Oc3c(C)cc(F)cc3C)c2o1 [Compound 1, N-ethyl-7-(2-(4-fluoro-2,6-dimethylphenoxy)-5-(2-hydroxypropan-2-yl)phenyl)-5-methyl-4-oxo-4,5-dihydrofuro[3,2-c]pyridine-2-carboxamide] | 0.7 nM | 2370 nM
CCNC(=O)c1cc2c(=O)n(C)cc(-c3cc(NS(=O)(=O)CC)ccc3Oc3ccc(F)cc3F)c2o1 [Compound 65, 7-(2-(2,4-difluorophenoxy)-5-(ethylsulfonamido)phenyl)-N-ethyl-5-methyl-4-oxo-4,5-dihydrofuro[3,2-c]pyridine-2-carboxamide] | 3 nM | 4 nM
